In ChEMBL document CHEMBL1649449, “Antifungal activities of natural and synthetic iron chelators alone and in combination with azole and polyene antibiotics against Aspergillus fumigatus” (Antimicrob Agents Chemother, 2009):

Test system: Aspergillus fumigatus
Experiment: Antifungal activity against Aspergillus fumigatus B5233 conidia after 16 hrs by fluorescence-based microplate assay at pH 7.2
Assay type: functional, organism-based
Conditions: B5233, 16 h

Row | Compound | IC50 [nM]
1 | Cc1cc(C2CCCCC2)n(O)c(=O)c1 [CICLOPIROX] | 4220
2 | Cc1c(O)c(=O)ccn1C [DEFERIPRONE] | 1290
